Assay results as given in PMC8318231, “Rate-of-Kill (RoK) assays to triage large compound sets for Chagas disease drug discovery: Application to GSK Chagas Box” (PLoS Neglected Tropical Diseases, 2021).

Tests used:
[1] = test system: T. cruzi Tulahuen trypomastigotes; assay: T. cruzi trypomastigote assay (Cell Titer-Glo viability, ATP luminescence); assay type: cell-based, Trypanosoma cruzi; conditions: for Trypomastigotes pIC50 48 hours: 48 hours incubation; for Trypomastigotes pIC50 48 hours / Trypomastigotes pIC50 72 hours: pIC50 = -log10 IC50 in molar units; for Trypomastigotes pIC50 72 hours: 72 hours incubation; for 48 pIC50 / 72 pIC50: trypomastigote assay; for 48 pIC50: 48 h; for 72 pIC50: 72 h
Experimental: T. cruzi Tulahuen trypomastigotes obtained from the supernatants of LLC-MK2 infected cultures in a 225 cm^2 T-Flasks harvested between days 5 and 8 of infection. Trypomastigotes (5 × 10^4 per well) in 50 μl of DMEM/ 2% FBS were dispensed into white 384 plates (Greiner) pre-stamped with 250 nl compound a single-shot final concentration of 5 μM, or in dose response. […] Cell Titer-Glo cell viability solution (Promega) was added to each well (50 μL) incubated at room temperature for 10 min and luminescence read by Envision plate reader (Perkin Elmer). This assay quantifies the amount of ATP present which is directly proportional to the number of metabolically active cells. All data were normalised (100% effect control for no cells and 0% effect control for DMSO). This assay was adapted from MacLean et al., 2018 [22].

TcCYP51 = conditions: formerly reported; cited from earlier work

SMILES | Trypomastigotes pIC50 48 hours [1] | Trypomastigotes pIC50 72 hours [1] | 48 pIC50 ([1]; figure 1A) | 72 pIC50 ([1]; figure 1A) | 72 pIC50 ([1]; figure 1B) | CYP51 pIC50 (TcCYP51)
O=S(=O)(NCC(c1cccnc1)N1CCN(c2ccccc2F)CC1)c1ccc(F)cc1 (centres unmarked) [TCMDC-143142] | < 4.3 | < 4.3 | < 4.3 | < 4.3 | < 4.3 | 7.1
O=C(NCC(c1cccnc1)N1CCc2ccccc2C1)C(=O)Nc1cccc(Cl)c1 (centres unmarked) [TCMDC-143329] | 4.8 | 4.8 | 4.8 | 4.8 | 4.8 | 7.2
Clc1ccc(CN2CCN(C3=NCCN3)CC2)cc1Cl.I.I [TCMDC-143605] | 5.6 | 5.3 | – | – | – | < 4
CC(Cn1ccnc1)NC(=O)C=Cc1ccc(Cl)cc1 (centres unmarked) [TCMDC-143423] | < 4.3 | < 4.3 | < 4.3 | < 4.3 | < 4.3 | 6.8
COc1ccc([N+](=O)[O-])cc1NC(=O)Nc1cccc(Cl)c1 [TCMDC-143528] | 5.6 | < 4.3 | – | – | – | < 4
CC(=O)Nc1ccc(-c2csc(NC(=O)c3ccc([N+](=O)[O-])s3)n2)cc1 [TCMDC-143164] | 6.4 | 6.6 | – | – | – | 5.2
Clc1cc(Br)ccc1OCCCCn1ccnc1.O=C(O)C(=O)O [TCMDC-143590] | 5.4 | 5.3 | – | – | – | 7.2
O=C1CCCCCC1(Cc1cnc[nH]1)c1ccc(Cl)cc1Cl (centres unmarked) [TCMDC-143081] | < 4.3 | < 4.3 | < 4.3 | < 4.3 | < 4.3 | 7
Cc1cccc(NS(=O)(=O)c2ccc3c(c2)C(=O)c2cc(S(=O)(=O)Nc4cccc(C)c4C)ccc2-3)c1C [TCMDC-143615] | 5 | 4.8 | – | – | – | < 4
Cc1cc(N(C)C)nc2ccc(Cc3cnc(N)nc3N)cc12 [TCMDC-143611] | 4.6 | 5.9 | – | – | – | < 4
O=C(CCCn1cnc([N+](=O)[O-])n1)Nc1cccc(Cl)c1 [TCMDC-143186] | 6 | 5.9 | – | – | – | 4.3
CC(Cn1ccnc1)NC(=O)C1CC1c1cccc(Cl)c1Cl (centres unmarked) [TCMDC-143506] | < 4.3 | < 4.3 | < 4.3 | < 4.3 | < 4.3 | 6.9
N#Cc1cc([N+](=O)[O-])ccc1NC1CCCCCC1 [TCMDC-143143] | < 4.3 | < 4.3 | < 4.3 | < 4.3 | < 4.3 | < 4
N#Cc1ccc(S(=O)(=O)N2CCN(Cc3cccc(-c4ccncc4)c3)CC2)cc1 [TCMDC-143620] | 4.4 | < 4.3 | – | – | – | 7.1
Cc1nn(C2CCS(=O)(=O)C2)c(C)c1CN(C)C(=O)C=Cc1sc2ccccc2c1Cl (centres unmarked) [TCMDC-143258] | 4.4 | 4.7 | – | – | – | 7.5
CNc1cncc(C2CCCN2C(=O)Cc2coc3cc(C)ccc23)n1 (centres unmarked) [TCMDC-143464] | < 4.3 | < 4.3 | < 4.3 | < 4.3 | < 4.3 | 7.6

SMILES | Trypomastigotes pIC50 48 hours [1] | Trypomastigotes pIC50 72 hours [1] | 48 pIC50 ([1]; figure 1A) | 72 pIC50 ([1]; figure 1A) | 72 pIC50 ([1]; figure 1B) | CYP51 pIC50 (TcCYP51)
Cl.Cl.NC(=O)c1ccc(-c2cccc(OCCN3CCN(C4CCCCC4)CC3)c2)cc1 [TCMDC-143598] | < 4.3 | < 4.3 | < 4.3 | < 4.3 | < 4.3 | 4.4
O=C(c1cc2cc(Cl)ccc2[nH]1)N1CCCCC1c1cccnc1 (centres unmarked) [TCMDC-143159] | 4.5 | 4.4 | – | – | – | 7.2
CNc1cncc(C2CCCN2C(=O)Cc2ccc3ccccc3c2)n1 (centres unmarked) [TCMDC-143465] | < 4.3 | < 4.3 | < 4.3 | < 4.3 | < 4.3 | 7
Fc1ccccc1N1C[C@H]2CCN(c3cccnc3)C[C@H]2C1.O=C(O)C(F)(F)F [TCMDC-143422] | 4.6 | < 4.3 | – | – | – | 7.2
COc1ccc(C(=O)N2CCC(Nc3cccnc3)C2)c(OC)n1 (centres unmarked) [TCMDC-143474] | < 4.3 | < 4.3 | < 4.3 | < 4.3 | < 4.3 | 7.2
Cc1ccc2ccc(C(Nc3ccccn3)c3cccnc3)c(O)c2n1 (centres unmarked) [TCMDC-143308] | 5.7 | 5.4 | – | – | – | 7.3
CC(C(=O)Nc1ccc(Br)cc1)N1CCN(c2ccc([N+](=O)[O-])cc2)CC1 (centres unmarked) [TCMDC-143545] | < 4.3 | < 4.3 | < 4.3 | < 4.3 | < 4.3 | 4.4
Cc1cccc(NS(=O)(=O)c2cnc3sc(C)cn3c2=O)c1 [TCMDC-143372] | < 4.3 | < 4.3 | < 4.3 | < 4.3 | < 4.3 | < 4
Cc1cc2ncn(-c3ccc([N+](=O)[O-])cc3C#N)c2cc1C [TCMDC-143546] | 5.7 | 5.9 | – | – | – | < 4
c1cc(-c2ncc(-c3ccn[nH]3)s2)ccn1 [TCMDC-143461] | < 4.3 | < 4.3 | < 4.3 | < 4.3 | < 4.3 | 7.4
COc1ccccc1C=CCN1C[C@H]2CCC[C@@H](C1)C2(O)c1cccnc1 (some centres unmarked) [TCMDC-143309] | < 4.3 | 4.5 | – | – | – | 6.9
Cc1ccc2c(c1)-c1onc(C(=O)N3CCCCC3c3cccnc3)c1CO2 (centres unmarked) [TCMDC-143191] | 4.7 | 4.4 | – | – | – | 7
N#Cc1nc(C=Cc2ccccc2)oc1NCc1cccnc1 [TCMDC-143120] | 4.5 | < 4.3 | – | – | – | –
CN(Cc1nnnn1C1CCN(Cc2ccc(-n3ccnc3)cc2)CC1)c1ccc(F)cc1F [TCMDC-143321] | – | – | – | – | – | 6.9
O=C(Nc1ccc(C(=O)N2CCCC2c2ccc3c(c2)OCCCO3)cc1)c1ccco1 (centres unmarked) [TCMDC-143198] | – | – | – | – | – | 4.2
CN(Cc1ccccc1)Cc1nnnn1C1CCN(Cc2ccc(-n3ccnc3)cc2)CC1 [TCMDC-143322] | – | – | – | – | – | 7.3
